Legend:
Test in all cases: cell viability (% survival relative to DMSO control, bortezomib = 0%); higher = less cytotoxic
Settings in all cases: 72 h
KU-812 = system: KU-812
How it was run: (§1)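 In 384-well plates pre-printed with compounds at 1, 10, 100, 1000 or 10000 nM, duplicate wells received cells from 10 AML and 5 CML lines at densities within the linear growth range. The plates stayed at 37 °C with 5% CO2 for 72 h before CellTiter-Glo luminescence was recorded. Each entry is averaged percent survival. Scaling placed vehicle at 100% and a 10 µM positive control at 0%.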

MOLM-13 = system: MOLM-13
How it was run: as §1

NOMO-1 = system: NOMO-1
How it was run: as §1

THP-1 = system: THP-1
How it was run: as §1

| Compound | cell viability (KU-812; 1 nM) | cell viability (KU-812; 10 nM) | cell viability (KU-812; 100 nM) | cell viability (KU-812; 1000 nM) | cell viability (KU-812; 10000 nM) | cell viability (MOLM-13; 1 nM) | cell viability (MOLM-13; 10 nM) | cell viability (MOLM-13; 100 nM) | cell viability (MOLM-13; 1000 nM) | cell viability (MOLM-13; 10000 nM) | cell viability (NOMO-1; 1 nM) | cell viability (NOMO-1; 10 nM) | cell viability (NOMO-1; 100 nM) | cell viability (NOMO-1; 1000 nM) | cell viability (NOMO-1; 10000 nM) | cell viability (THP-1; 1 nM) | cell viability (THP-1; 10 nM) | cell viability (THP-1; 100 nM) | cell viability (THP-1; 1000 nM) | cell viability (THP-1; 10000 nM) |
| --- | --- | --- | --- | --- | --- | --- | --- | --- | --- | --- | --- | --- | --- | --- | --- | --- | --- | --- | --- | --- |
| Cn1cc(C[C@@H](N)C(=O)O)c2ccccc21 [Indoximod] | 93.8% | 101% | 90.9% | 105% | 95.6% | 104% | 97.7% | 81.3% | 86.8% | 76.7% | 112% | 96.2% | 95.6% | 117% | 99% | 99.3% | 96.4% | 102% | 94.8% | 98.4% |
| O=C(Oc1ccc([N+](=O)[O-])cc1)N1CCC(C(O)(c2ccc3c(c2)OCO3)c2ccc3c(c2)OCO3)CC1 [JZL184] | 101% | 102% | 112% | 90.5% | 85.8% | 92.2% | 100% | 117% | 107% | 92.9% | 101% | 99.5% | 102% | 102% | 95.2% | 97.2% | 103% | 95.4% | 101% | 96.2% |
| O=C1N[C@@H]2[C@@H](O)[C@@H](O)[C@H](O)[C@@H](CO)N2C1=O [Kifunensine] | 92.5% | 98.4% | 106% | 83.4% | 96.2% | 76.3% | 105% | 117% | 81.3% | 130% | 103% | 102% | 110% | 88.7% | 100% | 98.6% | 95.2% | 97.7% | 89% | 104% |
| CC(C)(CCCCCCCCCCC(C)(C)CC(=O)O)CC(=O)O [MEDICA 16] | 106% | 94.2% | 101% | 106% | 97.8% | 113% | 97.1% | 107% | 79.4% | 96.7% | 100% | 95.3% | 101% | 101% | 103% | 103% | 94.8% | 97.2% | 96.5% | 99.3% |
| CC(C)c1ccc2c(c1)c(SC(C)(C)C)c(CC(C)(C)C(=O)O)n2Cc1ccc(Cl)cc1 [MK-886] | 109% | 97.3% | 94.1% | 94.9% | 91.5% | 89% | 103% | 88.9% | 85.3% | 88.4% | 120% | 110% | 106% | 107% | 97.5% | 96.6% | 101% | 98.2% | 96.8% | 108% |
| O=C(CCl)N(CCCNC(=O)C(F)(F)F)c1ccc([N+](=O)[O-])cc1 [ML175] | 99.1% | 96.8% | 89.7% | 81.3% | -0.456% | 89.5% | 115% | 92.4% | 0.57% | -1.51% | 96.3% | 97.8% | 97.8% | 0.0839% | -0.851% | 99.7% | 102% | 91.9% | 94.2% | -2.38% |
| CN(C)C(=N)NC(=N)N [Metformin] | 102% | 95.5% | 96.2% | 110% | 88.5% | 105% | 91.5% | 117% | 102% | 83.5% | 109% | 93.6% | 95.4% | 97.1% | 92.2% | 99.4% | 95.4% | 93% | 101% | 94.4% |
| Cl.OC[C@H]1NC[C@H](O)[C@@H](O)[C@H]1O [Migalastat] | 92.1% | 92.3% | 99.4% | 98.1% | 98.5% | 83.6% | 89.2% | 104% | 116% | 101% | 101% | 103% | 104% | 100% | 94.8% | 102% | 99.1% | 104% | 98.7% | 90.9% |
| OCCN1C[C@H](O)[C@@H](O)[C@H](O)[C@H]1CO [Miglitol] | 101% | 103% | 86.9% | 98.3% | 96% | 92.1% | 91.3% | 93% | 123% | 99.1% | 98.2% | 102% | 100% | 93.7% | 98.5% | 102% | 106% | 100% | 95.9% | 101% |
| CCCCCCCNC=O [N-Heptyl-Formamide] | 108% | 97.3% | 98.9% | 107% | 91.7% | 113% | 98.3% | 89.9% | 108% | 90.3% | 110% | 96.7% | 100% | 113% | 93% | 110% | 97.1% | 97.1% | 104% | 96.7% |
| CC(C)(F)C[C@H](N[C@@H](c1ccc(-c2ccc(S(C)(=O)=O)cc2)cc1)C(F)(F)F)C(=O)NC1(C#N)CC1 [Odanacatib] | 94.8% | 87.9% | 99.7% | 91.8% | 99.2% | 128% | 99.5% | 108% | 96.4% | 117% | 99.6% | 100% | 108% | 102% | 100% | 99.2% | 99.6% | 100% | 94.9% | 95.7% |
| CNC(=C[N+](=O)[O-])NCCSCc1ccc(CN(C)C)o1 [Ranitidine] | 109% | 101% | 97.4% | 96.8% | 107% | 97.9% | 94.2% | 91.6% | 102% | 117% | 96.3% | 96.2% | 108% | 98.7% | 101% | 105% | 103% | 98.2% | 99.6% | 102% |
| C#CCN[C@@H]1CCc2ccccc21 [Rasagiline] | 94.1% | 104% | 97.1% | 90.3% | 111% | 93.9% | 109% | 111% | 95.9% | 111% | 95.2% | 103% | 103% | 93.2% | 102% | 102% | 102% | 103% | 96% | 101% |
| NC(CCC(=O)NC(CSCc1ccc(Br)cc1)C(=O)NCC(=O)OC1CCCC1)C(=O)OC1CCCC1 (stereo not given) [S-para-Bromobenzylglutathione cyclopentyl diester] | 90.1% | 97.2% | 95.9% | 101% | 93.9% | 113% | 111% | 92.6% | 90% | 89.2% | 98% | 98.1% | 97.4% | 97.8% | 95.8% | 103% | 97.5% | 96.8% | 101% | 92% |
| COc1cc(C2Oc3cc(C4Oc5cc(O)cc(O)c5C(=O)C4O)ccc3OC2CO)ccc1O (stereo not given) [Silibinin] | 96.5% | 93.1% | 108% | 94.1% | 90.7% | 99.8% | 103% | 103% | 106% | 103% | 95.3% | 96.4% | 99.8% | 101% | 99.7% | 99.3% | 95.5% | 107% | 98.9% | 95.9% |
| Cn1c2cc(S(C)=O)sc2c2cnn(Cc3cccc(N)c3)c(=O)c21 (stereo not given) [TEPP-46] | 94.7% | 102% | 98.5% | 107% | 74.4% | 136% | 92.9% | 91.9% | 123% | 94.3% | 104% | 92.6% | 102% | 99.8% | 93.3% | 101% | 100% | 97.5% | 104% | 99.7% |
| CCCCCCCCCCCCCCOc1ccc(C(=O)O)o1 [TOFA] | 109% | 95% | 95.6% | 81.5% | 82.5% | 102% | 91.7% | 98.8% | 82.7% | 87% | 105% | 101% | 99.3% | 99% | 109% | 98.2% | 101% | 97.9% | 86.4% | 88.8% |
| CN1CC(=O)N2[C@H](c3ccc4c(c3)OCO4)c3[nH]c4ccccc4c3C[C@@H]2C1=O [Tadalafil] | 98.8% | 87.8% | 99.2% | 106% | 96% | 106% | 85.3% | 98.4% | 97.9% | 73.3% | 97.8% | 95.1% | 96.6% | 105% | 108% | 96.7% | 97.9% | 94.9% | 98.4% | 96.6% |
| Cl.NC1=CCCN1Cc1nc(O)nc(O)c1Cl [Tipiracil] | 101% | 88.8% | 104% | 108% | 99.7% | 104% | 96.3% | 122% | 121% | 93.6% | 106% | 100% | 100% | 100% | 99.2% | 102% | 97.2% | 102% | 101% | 101% |
| CCCC(CCC)C(=O)O [Valproic acid] | 95.6% | 86.5% | 92.6% | 99.5% | 97.2% | 105% | 100% | 100% | 76% | 105% | 93.8% | 93.6% | 94.6% | 98.5% | 104% | 104% | 93.2% | 93.7% | 102% | 91.2% |
| OCC(CO)N[C@H]1C[C@](O)(CO)[C@@H](O)[C@H](O)[C@H]1O [Voglibose] | 97.5% | 109% | 106% | 88.5% | 91.3% | 117% | 94.4% | 127% | 70% | 70.1% | 103% | 103% | 107% | 99.1% | 102% | 108% | 96% | 93% | 101% | 99.1% |
